{"source": "patent US11690935B2", "about": "“Thermosensitive peptide hydrogel” (NATIONAL CHIAO TUNG UNIVERSITY, priority 2020, dated 2023)", "key": {"[1]": {"assay": "Gel formation / sol-gel transition by vial inverting method", "type": "physicochemical", "conditions": "for Time at room temperature to convert again into a sol state: after gelation at 37° C., regardless of the concentration; for CGC: Table 5, critical gelation concentration", "protocol": "In a glass bottle of 2 mL (diameter 10 mm) with a screw cap, different compounds with different concentrations were weighed to perform the gelation. A sodium hydroxide solution was added to the suspension in order to adjust the pH value, and vortex and treatment of the sonication were alternately used until a clear compound solution was obtained. Polyethylene glycols having different molecular weights such as 300 g/mol, 600 g/mol, 1000 g/mol, 1500 g/mol, 2000 g/mol, and 3000 g/mol, etc. were also dissolved in the deionized water in order to obtain the polyethylene glycol solution, and the desired concentrations were further controlled. After the polyethylene glycols were completely dissolved, the polyethylene glycol solution was then mixed with the compound solution in order to obtain a compound/PEG solution. By adding hydrochloric acid dropwise, the pH value of the compound/PEG solution was adjusted to a neutral pH value of 7.0-7.4.\nGel formation was determined by a vial inverting method. After the equilibrium at room temperature, a glass bottle with the sample was immersed into a water bath of 37° C. in equilibrium or in an incubator of 37° C. for 30 minutes. After flipping the glass bottle, the sol-gel transition was determined. If the sample without floating was observed within 1 minute, the sample was considered as a gel. […] Each of the temperature data point represented an average temperature of three measurements. At a physiologically relevant temperature of 37° C., the gelation time as a function of the concentration of the block copolymer was measured in the water bath of 37° C."}, "[2]": {"assay": "Hydrogel degradation in PBS at 37° C.", "type": "physicochemical", "conditions": "on the seventh day, PBS pH 7.4, 37° C.", "protocol": "Hydrogel degradation was performed in a phosphate buffered solution (PBS) at 37° C. with 5% of CO2. In a 4 mL glass bottle, various 0.3 mL hydrogels were prepared, and 3 mL PBS was added to each of the glass bottles having the hydrogel. At some specific data points, the PBS was removed. The hydrogel was freeze-dried by the freeze-drying method, and the hydrogel degradation rate was calculated according to the following Formula (1),\n[formula] wherein W (%) represented the hydrogel degradation rate, Wi represented the initial weight of the hydrogel at day 0, and Wd represented the dry weight of the hydrogel at day of a specific number. Cell Viability Test\nIn some embodiments of the invention, accordingly, with the remaining conditions the same, the stability of the thermosensitive hydrogel was tested by immersing the samples into a PBS with the pH value of 7.4 at 37° C., and the result thereof was shown in FIG. 10. FIG. 10 was a diagram showing specific degradation percentage over time of the 5F-FF, 5F-FF/PEG300, 5F-FF/PEG600, 5F-FF/PEG1000, 5F-FF/PEG1500, 5F-FF/PEG2000, and 5F-FF/PEG3000 alone in the PBS according to some embodiments of the invention."}, "[3]": {"assay": "Cell viability test (MTT assay)", "type": "cell-based", "conditions": "human, hMSC (3A6) cells, read-out: Survival rate", "protocol": "The biocompatibilities of different peptide molecules were measured by a cell viability test (MTT assay). hMSC (3A6) cells were seeded in a 24-well plate with a density of 50,000 cells in each well, and the hMSC (3A6) cells were cultured for 24 hours, wherein the 24-well plate comprises a culture medium (DMEM) of 0.5 mL, and the DMEM comprises 10% FBS and 1% penicillin. When seeded in the cells, each of the wells was added with the compounds of different concentrations (0.5 and 5 wt %). After 24 and 48 hours, the original culture medium was replaced by a fresh culture medium, wherein the fresh culture medium was supplemented with a MTT reagent of 0.5 mL (4 mg/mL). After another 4 hours, the culture medium containing the MTT reagent was removed, and DMSO (0.5 mL per well) was then added in order to dissolve formazan crystals. Each of the 24-well plate was transferred to a 96-well plate. The optical density of the cells was measured at 595 nm by a light absorption plate reader (Sunrise, DV990/BV4 GDV Programmable MPT reader). The cells without treated by the compounds were used as the control group. The cell viability percentage, that is, viability (%), of the cells was calculated according to the following Formula (2).\n[formula] wherein ODsample represented the optical density of the sample, and ODcontrol represented the optical density of the control group.\nIn some embodiments of the invention, a cell viability test (MTT assay) was used for a colorimetric assay to analyze the biocompatibilities of the samples. In detail, a 0.5 wt % 5F-FF, a 0.5 wt %: 4.5 wt % 5F-FF/PEG1500, a 0.5 wt %: 4.5 wt % 5F-FF/PEG2000, and a 0.5 wt %: 4.5 wt % 5F-FF/PEG3000 (hydrogels under neutral conditions), and the immortalized human mesenchymal stem cells (hMSC, 3a6) was selected for testing, wherein the results were shown in FIG. 11. FIG. 11 was a diagram showing cell viability of cells treated with 0.5 wt % 5F-FF, 0.5 wt %: 4.5 wt % 5F-FF/PEG1500, 0.5 wt %: 4.5 wt % 5F-FF/PEG2000 and 0.5 wt %: 4.5 wt % 5F-FF/PEG3000 according to some embodiments of the invention."}}, "note": "Residues, ends and D or L forms follow the SMILES beside them. *: point of attachment. Phenylacetyl(2,3,4,5,6-F5) = O=C(Cc1c(F)c(F)c(F)c(F)c1F)*"}
{"smiles": "CC(NC(=O)C(Cc1cnc[nH]1)NC(=O)CNC(=O)C(Cc1ccccc1)NC(=O)C(Cc1ccccc1)NC(=O)Cc1c(F)c(F)c(F)c(F)c1F)C(=O)NC(C(=O)NC(CC(=O)O)C(=O)O)C(C)C", "note": "(stereo not drawn) [Sample 5F-FFGHAVD] ({Phenylacetyl(2,3,4,5,6-F5)}-FFGHAVD-OH; configuration not given here)", "values": [{"measurement": "Time at room temperature to convert again into a sol state", "setting": "[1]", "result": 20, "unit": "min"}]}
{"smiles": "N=C(N)NCCCC(NC(=O)C(Cc1ccccc1)NC(=O)C(Cc1ccccc1)NC(=O)Cc1c(F)c(F)c(F)c(F)c1F)C(=O)NCC(=O)NC(CC(=O)O)C(=O)O", "note": "(stereo not drawn) [Sample 5F-FFRGD] ({Phenylacetyl(2,3,4,5,6-F5)}-FFRGD-OH; configuration not given here)", "values": [{"measurement": "Time at room temperature to convert again into a sol state", "setting": "[1]", "result": 20, "unit": "min"}]}
{"smiles": "O=C(Cc1c(F)cc(F)cc1F)N[C@@H](Cc1ccccc1)C(=O)N[C@@H](Cc1ccccc1)C(=O)O", "note": "[Sample 3F-FF]", "values": [{"measurement": "CGC", "setting": "[1]; pH 7.0", "result": 0.5, "unit": "wt %"}]}
{"smiles": "O=C(Cc1ccc(F)cc1)N[C@@H](Cc1ccccc1)C(=O)N[C@@H](Cc1ccccc1)C(=O)O", "note": "[Sample 1F-FF]", "values": [{"measurement": "CGC", "setting": "[1]; pH 7.0", "result": 1, "unit": "wt %"}, {"measurement": "State at 37° C.", "setting": "[1]; Table 6, 1F-FF with PEG of different molecular weights, pH 7.0", "result": "Gel"}, {"measurement": "Detailed description of the sample", "setting": "[1]; Table 6, after cooling at 0° C.", "result": "Still hydrosol"}, {"measurement": "State at 0° C. (Surrounded by ice cubes)", "setting": "[1]; Table 6, gel-sol behavior, pH 7.0", "result": "Gel"}]}
{"smiles": "O=C(Cc1c(F)c(F)c(F)c(F)c1F)N[C@@H](Cc1ccccc1)C(=O)N[C@@H](Cc1ccccc1)C(=O)O", "note": "[Sample 5F-FF, 2,3,4,5,6-fluorobenzyl-diphenylalanine]", "values": [{"measurement": "Time Tsol-gel", "setting": "[1]; 5F-FF with PEG of different molecular weights, thermosensitive gelation at 37° C., pH 7.0", "result": "Gel"}, {"measurement": "CGC (critical gelation concentration)", "setting": "[1]; 5F-FF, Table 2", "result": 0.5, "unit": "wt %"}, {"measurement": "Degradation percentage", "setting": "[2]", "result": 35.75, "unit": "%"}, {"measurement": "viability at 24 h, 0.5 wt %", "setting": "[3]; day 1, hMSC (3A6), hydrogels under neutral conditions", "result": 84, "unit": "%"}, {"measurement": "viability at 48 h, 0.5 wt %", "setting": "[3]; day 2, hMSC (3A6)", "result": 88.6, "unit": "%"}, {"measurement": "viability at 72 h, 0.5 wt %", "setting": "[3]; day 3, hMSC (3A6)", "result": 68.2, "unit": "%"}, {"measurement": "viability at 120 h, 0.5 wt %", "setting": "[3]; day 5, hMSC (3A6)", "result": 73.3, "unit": "%"}, {"measurement": "viability at 168 h, 0.5 wt %", "setting": "[3]; day 7, hMSC (3A6)", "result": 84, "unit": "%"}]}
